Test results as given in ChEMBL document CHEMBL5291721, “A preclinical secondary pharmacology resource illuminates target-adverse drug reaction associations of marketed drugs” (Nat Commun, 2023).

Experiments:
Histamine H2 receptor = Histamine H2 receptor (Homo sapiens, UniProt P25021); assay type: functional, cell-based
Vasopressin V2 receptor = Vasopressin V2 receptor (Homo sapiens, UniProt P30518)
D(3) dopamine receptor = D(3) dopamine receptor (Homo sapiens, UniProt P35462)
[1] = target: T1, 5-hydroxytryptamine receptor 2C (Homo sapiens, UniProt P28335)
T1 sequence (P28335 whole entry): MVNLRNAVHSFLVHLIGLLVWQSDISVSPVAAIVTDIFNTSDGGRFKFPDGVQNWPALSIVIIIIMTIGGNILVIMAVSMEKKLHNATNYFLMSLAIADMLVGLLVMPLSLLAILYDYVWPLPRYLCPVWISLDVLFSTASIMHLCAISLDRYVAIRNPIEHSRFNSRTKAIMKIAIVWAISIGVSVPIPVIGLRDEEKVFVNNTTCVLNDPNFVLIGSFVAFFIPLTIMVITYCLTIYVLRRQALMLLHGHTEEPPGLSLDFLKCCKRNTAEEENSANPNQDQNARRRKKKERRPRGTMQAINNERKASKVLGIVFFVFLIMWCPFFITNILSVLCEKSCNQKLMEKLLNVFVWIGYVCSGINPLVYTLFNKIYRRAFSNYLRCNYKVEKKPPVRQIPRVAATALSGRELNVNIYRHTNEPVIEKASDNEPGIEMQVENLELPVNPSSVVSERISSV

[2] = target: Kappa-type opioid receptor (Homo sapiens, UniProt P41145)
[3] = target: Beta-2 adrenergic receptor (Homo sapiens, UniProt P07550)
[4] = target: Voltage-dependent L-type calcium channel subunit alpha-1C (Rattus norvegicus, UniProt P22002); assay type: functional
[5] = target: 3',5'-cyclic-AMP phosphodiesterase 4D (Homo sapiens, UniProt Q08499); assay type: functional
[6] = target: Delta-type opioid receptor (Homo sapiens, UniProt P41143)
[7] = target: T2, Type-1 angiotensin II receptor (Homo sapiens, UniProt P30556)
T2 sequence (P30556 whole entry): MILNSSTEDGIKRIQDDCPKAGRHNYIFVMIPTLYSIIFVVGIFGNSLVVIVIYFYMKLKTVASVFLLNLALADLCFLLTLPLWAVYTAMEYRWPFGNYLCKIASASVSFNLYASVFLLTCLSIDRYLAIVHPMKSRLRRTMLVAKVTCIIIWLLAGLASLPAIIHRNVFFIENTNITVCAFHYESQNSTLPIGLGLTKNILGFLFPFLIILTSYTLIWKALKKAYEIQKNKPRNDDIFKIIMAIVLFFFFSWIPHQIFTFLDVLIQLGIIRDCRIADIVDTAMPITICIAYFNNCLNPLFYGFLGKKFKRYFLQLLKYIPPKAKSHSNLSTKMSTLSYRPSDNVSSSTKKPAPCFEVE

Motilin receptor = Motilin receptor (Homo sapiens, UniProt O43193)
[8] = target: T3, Prostaglandin G/H synthase 1 (Rattus norvegicus, UniProt Q63921); assay type: functional
T3 sequence (Q63921 whole entry): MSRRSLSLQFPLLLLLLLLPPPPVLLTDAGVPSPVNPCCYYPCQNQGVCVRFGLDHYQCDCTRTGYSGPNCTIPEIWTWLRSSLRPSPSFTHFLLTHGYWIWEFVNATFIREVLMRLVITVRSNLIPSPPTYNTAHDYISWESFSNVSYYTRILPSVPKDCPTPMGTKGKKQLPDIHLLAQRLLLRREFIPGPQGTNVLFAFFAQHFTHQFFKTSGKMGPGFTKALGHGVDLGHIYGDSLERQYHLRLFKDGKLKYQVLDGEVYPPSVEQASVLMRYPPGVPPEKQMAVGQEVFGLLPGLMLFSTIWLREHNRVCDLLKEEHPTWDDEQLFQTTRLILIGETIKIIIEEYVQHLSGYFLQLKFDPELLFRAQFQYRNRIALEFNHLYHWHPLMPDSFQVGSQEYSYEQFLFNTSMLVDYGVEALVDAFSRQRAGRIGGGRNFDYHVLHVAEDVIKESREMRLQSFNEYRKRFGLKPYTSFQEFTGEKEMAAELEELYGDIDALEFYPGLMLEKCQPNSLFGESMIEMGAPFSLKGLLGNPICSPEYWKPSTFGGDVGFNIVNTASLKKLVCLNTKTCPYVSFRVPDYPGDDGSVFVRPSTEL

[9] = target: Sodium-dependent noradrenaline transporter (Homo sapiens, UniProt P23975)
[10] = target: T4, Alpha-1A adrenergic receptor (Homo sapiens, UniProt P35348); assay type: functional, cell-based
T4 sequence (P35348 whole entry): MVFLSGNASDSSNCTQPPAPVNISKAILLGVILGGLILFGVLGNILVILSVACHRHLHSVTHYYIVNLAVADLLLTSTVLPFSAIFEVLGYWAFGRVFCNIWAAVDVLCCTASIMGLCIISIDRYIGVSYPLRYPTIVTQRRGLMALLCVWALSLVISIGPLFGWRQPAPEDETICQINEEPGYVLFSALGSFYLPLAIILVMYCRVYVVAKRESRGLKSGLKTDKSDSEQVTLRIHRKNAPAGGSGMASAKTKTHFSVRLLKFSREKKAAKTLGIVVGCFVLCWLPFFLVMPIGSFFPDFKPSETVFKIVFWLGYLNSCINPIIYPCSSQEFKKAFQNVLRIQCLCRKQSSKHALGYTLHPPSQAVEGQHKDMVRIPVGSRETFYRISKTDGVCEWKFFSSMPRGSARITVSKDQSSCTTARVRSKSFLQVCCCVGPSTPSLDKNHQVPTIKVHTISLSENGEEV

[11] = target: Gamma-aminobutyric acid receptor subunit alpha-1 (Rattus norvegicus, UniProt P62813); assay type: functional
[12] = target: Beta-1 adrenergic receptor (Homo sapiens, UniProt P08588); assay type: functional
[13] = target: T4, Alpha-1A adrenergic receptor; assay type: functional, cell-based; remark: listed apart in the source
Also: assay procedure not described here.

Vasopressin V2 receptor, sequence (P30518 whole entry): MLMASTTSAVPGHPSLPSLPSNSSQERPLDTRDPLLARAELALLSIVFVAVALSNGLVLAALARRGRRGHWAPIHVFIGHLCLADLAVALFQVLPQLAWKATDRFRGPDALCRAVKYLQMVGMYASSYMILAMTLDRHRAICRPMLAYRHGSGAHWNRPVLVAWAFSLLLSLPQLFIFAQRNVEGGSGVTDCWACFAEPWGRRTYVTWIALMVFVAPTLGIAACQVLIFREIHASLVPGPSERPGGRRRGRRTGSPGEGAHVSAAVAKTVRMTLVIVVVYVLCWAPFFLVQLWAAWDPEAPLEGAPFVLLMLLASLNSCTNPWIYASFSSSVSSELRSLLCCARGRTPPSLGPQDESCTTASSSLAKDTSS
Beta-1 adrenergic receptor, sequence (P08588 whole entry): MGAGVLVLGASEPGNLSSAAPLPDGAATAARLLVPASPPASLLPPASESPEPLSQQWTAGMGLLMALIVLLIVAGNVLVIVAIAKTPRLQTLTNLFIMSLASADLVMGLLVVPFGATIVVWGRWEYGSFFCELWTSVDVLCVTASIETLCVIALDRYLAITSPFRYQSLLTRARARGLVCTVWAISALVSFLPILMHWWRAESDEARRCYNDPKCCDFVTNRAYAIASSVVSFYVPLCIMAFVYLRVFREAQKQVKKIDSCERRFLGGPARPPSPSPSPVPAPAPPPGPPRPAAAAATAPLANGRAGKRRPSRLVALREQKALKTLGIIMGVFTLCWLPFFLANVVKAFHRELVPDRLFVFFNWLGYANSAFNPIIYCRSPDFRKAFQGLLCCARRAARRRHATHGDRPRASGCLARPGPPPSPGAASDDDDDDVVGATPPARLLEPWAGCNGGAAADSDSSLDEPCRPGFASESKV
Histamine H2 receptor, sequence (P25021 whole entry): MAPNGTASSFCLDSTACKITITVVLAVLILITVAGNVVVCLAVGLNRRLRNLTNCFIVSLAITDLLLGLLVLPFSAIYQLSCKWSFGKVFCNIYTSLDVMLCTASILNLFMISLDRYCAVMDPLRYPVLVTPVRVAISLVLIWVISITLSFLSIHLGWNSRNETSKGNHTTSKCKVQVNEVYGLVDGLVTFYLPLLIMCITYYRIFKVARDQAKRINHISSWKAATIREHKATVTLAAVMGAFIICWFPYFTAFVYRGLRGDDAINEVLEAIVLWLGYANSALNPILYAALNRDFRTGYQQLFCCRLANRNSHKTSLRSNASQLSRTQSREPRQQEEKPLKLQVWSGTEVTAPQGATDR
Voltage-dependent L-type calcium channel subunit alpha-1C, sequence (P22002 whole entry): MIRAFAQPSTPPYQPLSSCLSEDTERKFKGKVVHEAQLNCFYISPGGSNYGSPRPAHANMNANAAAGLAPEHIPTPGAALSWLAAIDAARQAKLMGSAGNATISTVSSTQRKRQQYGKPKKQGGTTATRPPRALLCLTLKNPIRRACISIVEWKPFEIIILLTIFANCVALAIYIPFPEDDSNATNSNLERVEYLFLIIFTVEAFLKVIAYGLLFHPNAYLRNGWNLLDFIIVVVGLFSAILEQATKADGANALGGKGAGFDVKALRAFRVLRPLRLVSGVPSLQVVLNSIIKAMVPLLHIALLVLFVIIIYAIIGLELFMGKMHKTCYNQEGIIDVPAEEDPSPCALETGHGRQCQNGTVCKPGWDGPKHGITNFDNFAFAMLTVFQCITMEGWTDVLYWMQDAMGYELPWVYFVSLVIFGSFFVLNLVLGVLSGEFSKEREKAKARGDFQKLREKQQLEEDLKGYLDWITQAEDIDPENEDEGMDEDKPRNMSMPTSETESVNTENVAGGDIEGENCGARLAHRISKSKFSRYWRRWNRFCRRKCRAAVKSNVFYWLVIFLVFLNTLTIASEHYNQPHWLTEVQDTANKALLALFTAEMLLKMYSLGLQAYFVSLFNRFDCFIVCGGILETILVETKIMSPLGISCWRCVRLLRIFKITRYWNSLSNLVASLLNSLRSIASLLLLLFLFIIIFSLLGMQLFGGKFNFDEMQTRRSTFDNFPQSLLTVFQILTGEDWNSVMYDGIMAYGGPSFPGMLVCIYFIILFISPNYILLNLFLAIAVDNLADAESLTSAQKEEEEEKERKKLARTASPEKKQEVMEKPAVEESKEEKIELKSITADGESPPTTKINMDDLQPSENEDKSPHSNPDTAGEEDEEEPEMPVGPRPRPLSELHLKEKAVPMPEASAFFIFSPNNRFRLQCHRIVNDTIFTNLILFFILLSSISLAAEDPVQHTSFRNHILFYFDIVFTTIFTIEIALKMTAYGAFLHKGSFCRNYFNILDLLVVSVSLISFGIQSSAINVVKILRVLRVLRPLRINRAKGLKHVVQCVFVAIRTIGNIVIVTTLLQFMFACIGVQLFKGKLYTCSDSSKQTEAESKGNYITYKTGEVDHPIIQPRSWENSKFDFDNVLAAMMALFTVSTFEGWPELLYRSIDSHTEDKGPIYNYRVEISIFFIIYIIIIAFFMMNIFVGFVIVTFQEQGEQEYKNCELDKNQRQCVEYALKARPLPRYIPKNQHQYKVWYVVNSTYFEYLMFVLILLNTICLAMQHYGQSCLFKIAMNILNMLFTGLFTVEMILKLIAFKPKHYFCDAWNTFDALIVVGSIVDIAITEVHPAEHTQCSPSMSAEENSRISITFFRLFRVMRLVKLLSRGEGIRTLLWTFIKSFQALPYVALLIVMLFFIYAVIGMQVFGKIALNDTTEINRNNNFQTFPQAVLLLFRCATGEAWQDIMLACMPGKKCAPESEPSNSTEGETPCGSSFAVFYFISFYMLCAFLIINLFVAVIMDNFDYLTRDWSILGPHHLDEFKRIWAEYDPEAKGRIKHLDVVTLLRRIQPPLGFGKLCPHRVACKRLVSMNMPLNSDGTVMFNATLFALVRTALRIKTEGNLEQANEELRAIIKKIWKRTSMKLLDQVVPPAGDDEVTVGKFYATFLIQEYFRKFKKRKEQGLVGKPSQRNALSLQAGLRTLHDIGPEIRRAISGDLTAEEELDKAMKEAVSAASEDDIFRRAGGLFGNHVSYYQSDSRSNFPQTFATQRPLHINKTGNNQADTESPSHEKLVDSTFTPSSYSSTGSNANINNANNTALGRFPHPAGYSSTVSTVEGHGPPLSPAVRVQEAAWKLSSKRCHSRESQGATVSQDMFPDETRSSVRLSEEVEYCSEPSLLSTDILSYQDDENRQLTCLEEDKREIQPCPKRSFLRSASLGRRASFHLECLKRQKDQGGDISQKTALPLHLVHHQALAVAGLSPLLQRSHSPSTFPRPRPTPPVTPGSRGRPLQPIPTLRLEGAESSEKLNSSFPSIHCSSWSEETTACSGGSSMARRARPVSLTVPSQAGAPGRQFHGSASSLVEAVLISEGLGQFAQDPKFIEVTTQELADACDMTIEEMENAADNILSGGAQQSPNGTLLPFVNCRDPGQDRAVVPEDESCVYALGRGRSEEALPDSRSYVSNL
Sodium-dependent noradrenaline transporter, sequence (P23975 whole entry): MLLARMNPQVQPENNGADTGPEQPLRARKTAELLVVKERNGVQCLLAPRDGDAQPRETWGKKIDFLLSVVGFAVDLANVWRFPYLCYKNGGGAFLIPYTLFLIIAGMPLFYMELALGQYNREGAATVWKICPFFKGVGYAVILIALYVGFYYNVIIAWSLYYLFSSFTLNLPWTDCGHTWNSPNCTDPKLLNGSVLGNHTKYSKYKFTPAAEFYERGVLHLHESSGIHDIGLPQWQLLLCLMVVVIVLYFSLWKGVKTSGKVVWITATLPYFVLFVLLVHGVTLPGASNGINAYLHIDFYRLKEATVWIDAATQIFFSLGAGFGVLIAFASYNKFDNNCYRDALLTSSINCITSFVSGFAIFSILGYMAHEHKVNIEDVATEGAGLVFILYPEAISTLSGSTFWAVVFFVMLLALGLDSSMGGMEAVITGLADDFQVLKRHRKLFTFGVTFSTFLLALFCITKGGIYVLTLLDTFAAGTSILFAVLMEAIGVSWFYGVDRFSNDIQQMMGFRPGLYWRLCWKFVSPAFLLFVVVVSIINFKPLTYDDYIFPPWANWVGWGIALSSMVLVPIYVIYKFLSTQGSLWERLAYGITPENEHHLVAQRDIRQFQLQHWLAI
D(3) dopamine receptor, sequence (P35462 whole entry): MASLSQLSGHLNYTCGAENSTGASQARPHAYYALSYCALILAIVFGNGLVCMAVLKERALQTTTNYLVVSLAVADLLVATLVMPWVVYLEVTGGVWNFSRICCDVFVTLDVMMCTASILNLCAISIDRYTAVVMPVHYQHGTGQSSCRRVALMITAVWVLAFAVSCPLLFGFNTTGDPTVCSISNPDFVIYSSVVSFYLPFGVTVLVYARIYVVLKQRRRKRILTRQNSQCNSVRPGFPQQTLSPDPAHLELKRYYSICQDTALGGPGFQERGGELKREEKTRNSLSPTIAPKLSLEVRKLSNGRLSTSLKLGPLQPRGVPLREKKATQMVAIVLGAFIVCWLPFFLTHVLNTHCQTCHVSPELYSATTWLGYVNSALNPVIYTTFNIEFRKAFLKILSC
Kappa-type opioid receptor, sequence (P41145 whole entry): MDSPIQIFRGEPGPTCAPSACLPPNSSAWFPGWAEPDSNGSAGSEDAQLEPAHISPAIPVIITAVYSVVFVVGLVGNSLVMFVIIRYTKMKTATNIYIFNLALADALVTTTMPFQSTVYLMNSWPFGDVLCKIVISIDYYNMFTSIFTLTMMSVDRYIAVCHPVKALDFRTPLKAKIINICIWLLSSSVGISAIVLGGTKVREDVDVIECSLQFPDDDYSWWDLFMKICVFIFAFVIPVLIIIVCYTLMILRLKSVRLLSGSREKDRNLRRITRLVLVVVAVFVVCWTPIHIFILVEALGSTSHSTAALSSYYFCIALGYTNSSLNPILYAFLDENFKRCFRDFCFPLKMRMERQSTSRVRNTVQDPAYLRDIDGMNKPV

Compound	AC50 (Histamine H2 receptor) [µM]	AC50 (Vasopressin V2 receptor) [µM]	AC50 (D(3) dopamine receptor) [µM]	AC50 [1] [µM]	AC50 [2] [µM]	AC50 [3] [µM]	AC50 [4] [µM]	AC50 [5] [µM]	AC50 [6] [µM]	AC50 [7] [µM]	AC50 (Motilin receptor) [µM]	AC50 [8] [µM]	AC50 [9] [µM]	AC50 [10] [µM]	AC50 [11] [µM]	AC50 [12] [µM]	AC50 [13] [µM]
Cc1cc(-c2ccccc2)nnc1NCCN1CCOCC1 [MINAPRINE]	> 10	> 30	> 10	> 30	> 10	> 10	> 10	> 30	> 30	> 30	> 10	> 30	> 10	> 30	> 10	> 10	> 30
CN(C)C(=O)OC1N=C(c2ccccc2)c2cc(Cl)ccc2N(C)C1=O (stereo unspecified) [CAMAZEPAM]	> 10	> 30	> 10	> 30	> 10	> 10	> 10	4.3	> 10	> 30	> 10	> 30	> 10	> 30	0.96	> 10	> 30
Cc1nc2ccc(CN(C)c3ccc(C(=O)N[C@@H](CCC(=O)O)C(=O)O)s3)cc2c(=O)[nH]1 [RALTITREXED]	> 30	> 30	> 30	> 30	> 30	> 30	> 30	> 30	> 30	> 30	> 30	> 30	> 30	> 30	> 30	> 30	> 30
C[C@]12CCC(=O)C=C1CC[C@@H]1[C@@H]2CC[C@@]2(C)[C@H]1CC[C@]2(C)O [METHYLTESTOSTERONE]	> 30	> 30	> 30	> 30	> 30	> 30	> 30	> 30	> 30	> 30	> 30	> 30	> 30	> 30	> 30	> 30	27
COC(=O)C1=C(C)NC(C)=C(C(=O)OC(C)C)C1c1cccc2nonc12 (stereo unspecified) [ISRADIPINE]	> 30	> 30	> 30	> 30	10.7	> 10	0.0045	9	11	> 10	14.7	> 30	> 30	> 30	> 10	> 10	> 30
NC(=O)C[S+]([O-])C(c1ccccc1)c1ccccc1 (stereo unspecified) [MODAFINIL]	> 10	> 30	> 10	> 30	> 10	> 10	> 10	> 30	> 10	> 30	> 10	> 30	> 10	> 30	> 10	> 10	> 30
O=C(OCCN1CCOCC1)c1cccnc1Nc1cccc(C(F)(F)F)c1 [MORNIFLUMATE]	> 30	> 30	> 30	> 30	24	> 30	> 30	4.3	> 30	> 30	> 30	> 30	17	> 30	> 30	> 30	> 30
CCOC(=O)[C@H](CCc1ccccc1)N[C@H]1CCCN2CCC[C@@H](C(=O)O)N2C1=O [CILAZAPRIL]	> 30	> 30	> 30	> 30	> 30	> 30	> 30	> 30	> 30	> 30	> 30	> 30	> 30	> 30	> 30	> 30	> 30
